Where “and” joins values, the source holds several entries; their conditions need not be identical. Equal entries are not always repeated.
Legend:
PD-L1 = PD-L1 (Homo sapiens, UniProt Q9NZQ7); assay: Saturation binding assay on human PD-L1 transduced PC3 cells (assay buffer with 2.5% BSA); parameters: expressed in transfected cells; host or cells: PC3 cells transduced with human PD-L1 (PC3-PD-L1); details: for Kd: human PD-L1 transduced PC3 cells, on ice 90 min, PBS + 2.5% w/v BSA; for Bmax: saturation binding, pmol/mg protein, PC3 PD-L1 cells
PD-L1, sequence (Q9NZQ7 19-290): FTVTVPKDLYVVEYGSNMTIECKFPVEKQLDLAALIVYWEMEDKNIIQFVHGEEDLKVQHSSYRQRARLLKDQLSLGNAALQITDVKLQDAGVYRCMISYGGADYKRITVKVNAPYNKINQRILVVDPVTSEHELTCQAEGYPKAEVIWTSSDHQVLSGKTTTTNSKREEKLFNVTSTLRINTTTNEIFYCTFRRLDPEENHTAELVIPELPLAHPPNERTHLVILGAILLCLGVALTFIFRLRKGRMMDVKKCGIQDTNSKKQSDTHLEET

[1] = system: PC3 PD-L1 overexpressing and PD-L1-mock tumors; assay: PET imaging in NMRI-nude mice bearing PC3 PD-L1 and PC3 mock tumors; assay type: in vivo; details: for reduction of PD-L1 positive tumor uptake under blocking conditions / reduction of liver uptake under blocking conditions / contrast of PD-L1 positive tumor SUVmax over mock tumor: 1–2 h p.i.; for reduction of PD-L1 positive tumor uptake under blocking conditions / reduction of liver uptake under blocking conditions: 500 nmol unlabeled compound; for contrast of PD-L1 positive tumor SUVmax over mock tumor: percent higher than mock tumor; for excretion pattern / clearance route in PET / SUVmax PC3 PD-L1 tumor, blocking / SUVmax PC3 mock tumor, blocking / SUVmax kidney, blocking / SUVmax liver, blocking / SUVmax PC3 PD-L1 tumor / SUVmax PC3 mock tumor / SUVmax kidney / SUVmax liver: mice; for excretion pattern / clearance route in PET: PET 0–25 h p.i.; for SUVmax PC3 PD-L1 tumor / SUVmax PC3 mock tumor / SUVmax kidney / SUVmax liver: tracer only, i.v.
Description: Male athymic NMRI-nude mice (Rj:NMRI-Foxn1nu, Janvier Labs, Le Genest-Saint-Isle, France) aged between 8 to 16 weeks were employed for the study. General anesthesia was induced [~ 10% desflurane (Baxter, Deerfield, IL, USA) in 30 vol% oxygen + air] under controlled warming (37°C), and mice were subcutaneously injected with 3–5 × 10^6 PC3 PD-L1 and PC3 mock cells (in 50 µL PBS + 50 µL Matrigel, Corning, Glendale, CA, USA) into the right and left thigh, respectively. The growth of tumors was systematically monitored three times per week through caliper measurements, and animals with tumor sizes above 7 mm were included in the subsequent experiments.
PET and X-ray computed tomography (CT) scans were conducted under general anesthesia using a small animal nanoScan PET/CT scanner (Mediso, Budapest, Hungary), capable of imaging four animals simultaneously. CT images served attenuation correction and anatomical referencing. A total of three individual scans were conducted, corresponding to the timeframes of 0–2 h (dynamic reconstruction), 4–5 h, and 24–25 h (one frame reconstruction) after injection.
The PD-L1 radiotracer candidates (in 300 µL sterile 0.9% NaCl/HEPES buffer, pH 6–7, containing between 7 and 12 MBq, with molar activities exceeding 12 GBq/µmol) were intravenously delivered over 30 s through a catheter in the lateral tail vein. The PET acquisition was initiated simultaneously with the administration.
The acquired three-dimensional list mode data were sorted and binned within a 400–600 keV energy window, forming […] (15 × 10 s, 5 × 30 s, 5 × 60 s, 4 × 300 s, 3 × 600 s, 3 × 1200 s). Reconstruction of the time frames was accomplished using the Tera-TomoTM 3D algorithm, utilizing a voxel size of 0.4 mm and applying corrections for decay, scatter, and attenuation. The images were subjected to post-processing and analysis using Rover software (ABX GmbH, Radeberg, Germany), and were depicted as maximum intensity projections (MIPs) at the specified timepoints and scaling.
Three-dimensional volumes of interest were defined using fixed thresholding at 35–40% of the maximal measured intensity. Standardized uptake values (SUV = [MBq detected activity/mL tissue] / [MBq injected activity/g body weight], in mL/g) were then calculated within the selected volumes of interest, encompassing PD-L1 and mock tumors, as well as metabolizing organs.

[2] = tracer +500 nM respective unlabeled compound (injected 5 min prior), 1-2 hour p.i.
[3] = tracer +500 nM respective unlabeled compound, 1-2 hour p.i.
[4] = tracer +500 nM respective unlabeled compound, 4-5 hour p.i.
[5] = tracer +500 nM respective unlabeled compound, 24-25 hour p.i.
[6] = 1-2 hour p.i., listed as [64Cu]Cu-14
[7] = 4-5 hour p.i., listed as [64Cu]Cu-14
[8] = 1-2 hour p.i., listed as [64Cu]Cu-16

Cc1c(COc2cc(OCc3cncc(S(C)(=O)=O)c3)c(CN[C@@H](CS(=O)(=O)O)C(=O)NCCS(=O)(=O)O)cc2Br)cccc1-c1cccc(OCc2cn(CCCN3CCN(C(=O)[C@H](CS(=O)(=O)O)NC(=O)CC[C@H](C(=O)[O-])N4CCN(CC(=O)[O-])CCN(CC(=O)[O-])CC4)CC3)nn2)c1C.[64Cu+2] [[^64Cu]Cu-14]
Kd (PD-L1): 100 nM | Bmax (PD-L1): 2.40 pmol/mg and 2.40 ± 0.48 pmol/mg | reduction of PD-L1 positive tumor uptake under blocking conditions [1]: 13% | reduction of liver uptake under blocking conditions [1]: 63% | contrast of PD-L1 positive tumor SUVmax over mock tumor [1]: 99% | excretion pattern / clearance route in PET [1]: favorable renal clearance | SUVmax PC3 PD-L1 tumor, blocking [1, 2]: 1.48 ± 0.44 | SUVmax PC3 PD-L1 tumor, blocking ([1]; tracer +500 nM respective unlabeled compound (injected 5 min prior), 1-2 hour p.i., listed as [64Cu]Cu-14): 1.48 | SUVmax PC3 mock tumor, blocking [1, 3]: 1.19 | SUVmax kidney, blocking [1, 3]: 32.81 | SUVmax liver, blocking [1, 3]: 1.25 ± 0.13 | SUVmax liver, blocking ([1]; tracer +500 nM respective unlabeled compound, 1-2 hour p.i., listed as [64Cu]Cu-14): 1.25 | SUVmax PC3 PD-L1 tumor, blocking [1, 4]: 0.78 | SUVmax PC3 mock tumor, blocking [1, 4]: 0.48 | SUVmax kidney, blocking [1, 4]: 0.88 | SUVmax liver, blocking [1, 4]: 0.98 | SUVmax PC3 PD-L1 tumor, blocking [1, 5]: 1.53 | SUVmax PC3 mock tumor, blocking [1, 5]: 1.05 | SUVmax kidney, blocking [1, 5]: 0.44 | SUVmax liver, blocking [1, 5]: 0.99 | SUVmax PC3 PD-L1 tumor ([1]; 1-2 hour p.i.): 1.71 ± 0.04 | SUVmax PC3 mock tumor ([1]; 1-2 hour p.i.): 0.86 ± 0.16 | SUVmax kidney ([1]; 1-2 hour p.i.): 22.8 ± 3.0 | SUVmax liver ([1]; 1-2 hour p.i.): 3.41 ± 0.19 | SUVmax PC3 PD-L1 tumor [1, 6]: 1.71 | SUVmax PC3 mock tumor [1, 6]: 0.86 | SUVmax kidney [1, 6]: 22.77 | SUVmax liver [1, 6]: 3.41 | SUVmax PC3 PD-L1 tumor ([1]; 4-5 hour p.i.): 1.26 | SUVmax PC3 mock tumor ([1]; 4-5 hour p.i.): 0.50 | SUVmax kidney ([1]; 4-5 hour p.i.): 0.72 ± 0.24 | SUVmax liver ([1]; 4-5 hour p.i.): 1.54 ± 0.19 | SUVmax kidney [1, 7]: 0.72 | SUVmax liver [1, 7]: 1.54 | SUVmax PC3 PD-L1 tumor ([1]; 24-25 hour p.i.): 1.52 | SUVmax PC3 mock tumor ([1]; 24-25 hour p.i.): 1.49 | SUVmax kidney ([1]; 24-25 hour p.i.): 0.63 | SUVmax liver ([1]; 24-25 hour p.i.): 1.41

Cc1c(COc2cc(OCc3cncc(S(C)(=O)=O)c3)c(CN[C@@H](CS(=O)(=O)O)C(=O)NCCS(=O)(=O)O)cc2Br)cccc1-c1cccc(OCc2cn(CCCN3CCN(C(=O)[C@H](CS(=O)(=O)O)NC(=O)CCCC(=O)NC45CNCCNCC(N)(CNCCNC4)CNCCNC5)CC3)nn2)c1C.[64Cu+2] [[^64Cu]Cu-16]
Kd (PD-L1): 265 ± 12.5 nM | Bmax (PD-L1): 3.30 pmol/mg and 3.30 ± 0.46 pmol/mg | reduction of PD-L1 positive tumor uptake under blocking conditions [1]: 10% | reduction of liver uptake under blocking conditions [1]: 74% | contrast of PD-L1 positive tumor SUVmax over mock tumor [1]: 107% | excretion pattern / clearance route in PET [1]: clearance via the renal pathway | SUVmax PC3 PD-L1 tumor, blocking [1, 2]: 1.45 ± 0.06 | SUVmax PC3 PD-L1 tumor, blocking ([1]; tracer +500 nM respective unlabeled compound (injected 5 min prior), 1-2 hour p.i., listed as [64Cu]Cu-16): 1.45 | SUVmax PC3 mock tumor, blocking [1, 3]: 0.90 | SUVmax kidney, blocking [1, 3]: 7.93 | SUVmax liver, blocking [1, 3]: 1.13 ± 0.04 | SUVmax liver, blocking ([1]; tracer +500 nM respective unlabeled compound, 1-2 hour p.i., listed as [64Cu]Cu-16): 1.13 | SUVmax PC3 PD-L1 tumor, blocking [1, 4]: 0.68 | SUVmax PC3 mock tumor, blocking [1, 4]: 0.54 | SUVmax kidney, blocking [1, 4]: 1.28 | SUVmax liver, blocking [1, 4]: 0.84 | SUVmax PC3 PD-L1 tumor, blocking [1, 5]: 1.14 | SUVmax PC3 mock tumor, blocking [1, 5]: 1.01 | SUVmax kidney, blocking [1, 5]: 1.02 | SUVmax liver, blocking [1, 5]: 0.85 | SUVmax PC3 PD-L1 tumor ([1]; 1-2 hour p.i.): 1.61 ± 0.93 | SUVmax PC3 mock tumor ([1]; 1-2 hour p.i.): 0.78 ± 0.36 | SUVmax kidney ([1]; 1-2 hour p.i.): 16.2 ± 15.5 | SUVmax liver ([1]; 1-2 hour p.i.): 4.32 ± 0.02 | SUVmax PC3 PD-L1 tumor [1, 8]: 1.61 | SUVmax PC3 mock tumor [1, 8]: 0.78 | SUVmax kidney [1, 8]: 16.18 | SUVmax liver [1, 8]: 4.32 | SUVmax PC3 PD-L1 tumor ([1]; 4-5 hour p.i.): 0.89 | SUVmax PC3 mock tumor ([1]; 4-5 hour p.i.): 0.37 | SUVmax kidney ([1]; 4-5 hour p.i.): 1.37 | SUVmax liver ([1]; 4-5 hour p.i.): 2.49 | SUVmax PC3 PD-L1 tumor ([1]; 24-25 hour p.i.): 1.47 | SUVmax PC3 mock tumor ([1]; 24-25 hour p.i.): 0.87 | SUVmax kidney ([1]; 24-25 hour p.i.): 0.90 | SUVmax liver ([1]; 24-25 hour p.i.): 1.77 ± 0.08 | SUVmax liver ([1]; 24-25 hour p.i., listed as [64Cu]Cu-16): 1.77

Source: article PMC10876507, “Chelator impact: investigating the pharmacokinetic behavior of copper-64 labeled PD-L1 radioligands” (EJNMMI Radiopharmacy and Chemistry, 2024)
